Results from US12514843B2, “Biofilm disruption” (QBIOTICS PTY LTD, priority 2019, dated 2026).
Values after ≈ are worked out from the molar mass of the structure shown.

What was measured:
[1] = system: Acinetobacter baumannii 7789 (V19); test: Minimum inhibitory concentration (MIC) assay, planktonic culture, broth dilution; assay type: cell-based; set-up: key: C = confluent growth, i.e. no MIC could be determined at any concentration tested; settings: A. baumannii, planktonic culture in Mueller-Hinton broth; mean of three replicate tests
Method: (§1) The effects of five epoxytiglienones (Compounds 1, 2, 3, 4 and 6) and two comparator comparator compounds (epoxytiglienones having longer carbon chains at the C12 position) on six human pathogenic bacteria (two Gram-positive and four Gram-negative species) were measured in conventional planktonic culture systems. A minimum inhibitory concentrations (MIC) assay (the standard assay employed to define and quantify antibiotic activity) was performed to determine antibacterial activity for each epoxytiglienone against each bacterial strain.
(§2) The Gram-positive bacteria used in this study were methicillin resistant Staphylococcus aureus (MRSA) 1004A and Streptococcus pyogenes. The Gram-negative bacteria used in this study were Pseudomonas aeruginosa PAO1, Escherichia coli IR57 (V7), Klebsiella pneumoniae, and Acinetobacter baumannii 7789 (V19). MIC assays were performed on planktonic cultures of each bacteria grown in Mueller-Hinton broth using the standard broth dilution method described by Jorgensen et al. (1999) using epoxytiglienones dissolved in ethanol.

[2] = system: Pseudomonas aeruginosa PAO1; test: as above; assay type: cell-based; set-up: key: C = confluent growth, i.e. no MIC could be determined at any concentration tested; settings: P. aeruginosa, planktonic culture in Mueller-Hinton broth; mean of three replicate tests
Method: as §1, §2

[3] = system: Escherichia coli IR57 (V7); test: as above; assay type: cell-based; set-up: key: C = confluent growth, i.e. no MIC could be determined at any concentration tested; settings: E. coli, planktonic culture in Mueller-Hinton broth; mean of three replicate tests
Method: as §1, §2

Klebsiella pneumoniae = test: as above; assay type: cell-based; set-up: key: C = confluent growth, i.e. no MIC could be determined at any concentration tested; settings: K. pneumoniae, planktonic culture in Mueller-Hinton broth; mean of three replicate tests
Method: as §1, §2

Streptococcus pyogenes = test: as above; assay type: cell-based; set-up: key: C = confluent growth, i.e. no MIC could be determined at any concentration tested; settings: S. pyogenes, planktonic culture in Mueller-Hinton broth; mean of three replicate tests
Method: as §1, §2

[4] = system: methicillin resistant Staphylococcus aureus (MRSA) 1004A; test: as above; assay type: cell-based; set-up: key: C = confluent growth, i.e. no MIC could be determined at any concentration tested; settings: S. aureus, planktonic culture in Mueller-Hinton broth; mean of three replicate tests
Method: as §1, §2

E. coli IR57 biofilm [5] = test: Disruption of established in vitro biofilm, CLSM with COMSTAT image analysis; assay type: cell-based, Escherichia coli; settings: E. coli IR57 24 h biofilm, 256 μg/mL, further 24 h; vs untreated and ethanol blank controls
Method: The effects of administration of Compounds 1, 4 and 6 and comparator compound CC-1 on disruption of established in vitro biofilms of Escherichia coli (E. coli) was investigated using methods described in Powell et al. (2018).
(§3) Biofilms of E. coli IR57 were grown on 96-well glass-bottomed plates in Mueller-Hinton (MH) broth for 24 h, before 50% of the supernatant was replaced with fresh MH broth with or without the epoxytiglienone compound added to a final concentration of 256 μg/mL (vehicle is ethanol). An ethanol equivalent blank was used as a further control treatment. The plates were then incubated for a further 24 h at 37° C.
(§4) Confocal laser scanning microscopy (CLSM) was then used to image the biofilms, following staining with Live/Dead® Baclight stain with phosphate buffered saline (PBS) added to each well before imaging with z-stack CLSM. The resultant images were analysed by COMSTAT software to produce measurements of (i) biofilm biomass volume or bio-volume (μm^3/μm^2) and (ii) DEAD/LIVE bacterial ratio.

[6] = system: A. baumannii 7789 biofilm; test: as above; assay type: cell-based, Acinetobacter baumannii; settings: 256 μg/mL; for DEAD/LIVE bacterial ratio: vs untreated and ethanol blank controls; for biofilm bio-volume (COMSTAT): vs untreated and ethanol blank controls (p<0.05)
Method: as §3, §4
(§5) The effects of the epoxytiglienones (Compounds 1, 4, 6 and the comparator compound CC-1) on disruption of established in vitro biofilms were further investigated with two other species of Gram-negative bacteria (Pseudomonas aeruginosa PA01 and Acinetobacter baumannii 7789) using methods described in Example 2 above. Cell permeabilisation following Compound 1, 4 and 6 treatment was also determined using SYTOX™ Green Nucleic Acid Stain with untreated control and positive control of 70% isopropanol.

[7] = system: P. aeruginosa PAO1 biofilm; test: as above; assay type: cell-based, Pseudomonas aeruginosa; settings: 256 μg/mL, vs untreated and ethanol blank controls
Method: as §3, §4, §5

E. coli IR57 biofilm [8] = test: Multiple particle tracking (MPT) of 200 nm FluoSpheres in established biofilm; assay type: cell-based, Escherichia coli; settings: for Diffusion coefficient (Deff) ± standard deviation: 200 nm negatively-charged carboxylate-modified FluoSpheres in E. coli IR57 biofilms, 256 μg/mL, 24 h treatment; for mean squared displacement (MSD) of FluoSphere particles / biofilm creep compliance: E. coli IR57 biofilm, vs untreated and ethanol blank controls; for mean squared displacement (MSD) of FluoSphere particles: 200 nm FluoSpheres; for biofilm creep compliance: derived from MSD vs lag time
Method: The effect of three epoxytiglienones (Compounds 1, 4 and 6) on the assembly and permeability of established biofilms of E. coli was assessed using multiple particle tracking (MPT). MPT is a recently described technique, allowing simultaneous tracking of micron-size particles through biofilms using microscopy, from which the diffusion-based parameters of embedded particles within the extracellular polymeric matrix (EPS) of the biofilm can be determined (Cao et al. 2016). MPT measurements also allows for calculation of micro-rheological properties of the biofilm structure following treatment with test compounds.
E. coli biofilms were established and epoxytiglienone and control treatments applied as described in Example 2 above. Twenty-four hours after application of the treatments, the biofilms were stained with SYTO9® and 0.0025% of negatively-charged, carboxylate-modified FluoSpheres® (200 nm) added onto the biofilms and incubated for a further 2 hours. FluoSphere® particle movements within the biofilms were then captured on video using epifluorescence microscopy with a high frame-rate camera (33 ms). Particle trajectories were tracked using ImageJ softwaren (Mosaic) before calculation of three parameters of the 200 nm FluoSphere® particles: (i) ensemble diffusion coefficient (Deff), (ii) ensemble mean squared displacement (MSD) and (iii) creep compliance (a measure of resistance to mechanical deformation derived from the MSD vs lag time). Each treatment was replicated three times.

SMILES | Minimum inhibitory concentrations [1] | Minimum inhibitory concentrations [2] | Minimum inhibitory concentrations [3] | Minimum inhibitory concentrations (Klebsiella pneumoniae) | Minimum inhibitory concentrations (Streptococcus pyogenes) | Minimum inhibitory concentrations [4] | biofilm bio-volume (COMSTAT) (E. coli IR57 biofilm [5]) | distribution and density of bacteria in the biofilm (CLSM) (E. coli IR57 biofilm [5]) | DEAD/LIVE bacterial ratio [6] | biofilm bio-volume (COMSTAT) [6] | DEAD/LIVE bacterial ratio [7] | Diffusion coefficient (Deff) ± standard deviation (E. coli IR57 biofilm [8]) [cm^2 · s^−1 × 10^−9] | mean squared displacement (MSD) of FluoSphere particles (E. coli IR57 biofilm [8]) | biofilm creep compliance (E. coli IR57 biofilm [8])
CCC(C)C(=O)OC1C(C)C2(O)C(C3OC3(CO)C(O)C3(O)C(=O)C(C)=CC32)C2C(C)(C)C12OC(=O)C(C)CC (centres unmarked) [Compound 2, 12,13-di-(2-methylbutanoyl)-6,7-epoxy-4,5,9,12,13,20-hexahydroxy-1-tiglien-3-one] | C | C | C | C | 128 µg/mL (≈ 227 µM) | 256 µg/mL (≈ 453 µM) |  |  |  |  |  |  |  | 
CCCCCC=CC=CC(=O)OC1C(C)C2(O)C(C3OC3(CO)C(O)C3(O)C(=O)C(C)=CC32)C2C(C)(C)C12OC(=O)C(C)CC (centres unmarked) [CC-1, 12-(2,4-decadienoyl)-13-(2-methylbutanoyl)-6,7-epoxy-4,5,9,12,13,20-hexahydroxy-1-tiglien-3-one, reference compound] | C | C | C | C | 8 µg/mL (≈ 12.7 µM) | 8 µg/mL (≈ 12.7 µM) | no apparent effect | no apparent effect | no significant differences | significant reductions | no significant differences |  |  | 
C/C=C(\C)C(=O)O[C@@H]1[C@@H](C)[C@@]2(O)[C@H]([C@@H]3C(C)(C)[C@]13OC(=O)[C@@H](C)CC)[C@@H]1O[C@]1(CO)[C@@H](O)[C@]1(O)C(=O)C(C)=C[C@H]12 [Compound 1, 12-tigloyl-13-(2-methylbutanoyl)-6,7-epoxy-4,5,9,12,13,20-hexahydroxy-1-tiglien-3-one] | C | C | C | C | 128 µg/mL (≈ 227 µM) | 256 µg/mL (≈ 455 µM) | Significant decreases | significant changes | no significant differences | significant reductions | no significant differences | 0.6018 ± 0.0901 | substantially higher | increased
CCCCCC=CC=CC(=O)O[C@@H]1C(C)[C@]2(O)C(C3OC3(CO)[C@H](O)[C@@]3(O)C(=O)C(C)=CC23)C2C(C)(C)[C@]21OC(=O)C(C)CC (stereo partly drawn) [CC-2, 12R-(2,4-decadienoyl)-13R-(2-methylbutanoyl)-6,7-epoxy-4R,5R,9S,12R,13R,20-hexahydroxy-1-tiglien-3-one, reference compound] | C | C | C | C | 8 µg/mL (≈ 12.7 µM) | 16 µg/mL (≈ 25.4 µM) |  |  |  |  |  |  |  | 
CCC(=O)OC1C(C)C2(O)C(C3OC3(CO)C(O)C3(O)C(=O)C(C)=CC32)C2C(C)(C)C12OC(=O)C(C)CC (centres unmarked) [Compound 6, 12-propanoyl-13-(2-methylbutanoyl)-6,7-epoxy-4,5,9,12,13,20-hexahydroxy-1-tiglien-3-one] | C | C | C | C | C | C | Decreases in bio-volume were evident | significant changes | no significant differences |  | no significant differences | 0.1607 ± 0.0104 | substantially higher | increased
CCCCCC(=O)OC1C(C)C2(O)C(C3OC3(CO)C(O)C3(O)C(=O)C(C)=CC32)C2C(C)(C)C12OC(=O)C(C)CC (centres unmarked) [Compound 3, 12-hexanoyl-13-(2-methylbutanoyl)-6,7-epoxy-4,5,9,12,13,20-hexahydroxy-1-tiglien-3-one] | C | C | C | C | 128 µg/mL (≈ 221 µM) | 256 µg/mL (≈ 442 µM) |  |  |  |  |  |  |  | 
